From patent publication US20190211397A1, “INHIBITORS OF GPR132 FOR USE IN PREVENTING AND/OR TREATING CHEMOTHERAPY-INDUCED NEUROPATHIC PAIN” (Fraunhofer-Gesellschaft zur Foerderung der angewandten …, priority 2016, published 2019)

Tests used:
TRPV1 = test: Whole-cell voltage clamp of DRG neurons, capsaicin-induced inward current; type: cell-based, mice; conditions: DRG neurons pre-treated with 9-HODE (200 nM, 3 min), capsaicin 1 μM
Protocol: All recordings were carried out at room temperature within 48 hour of plating DRG neurons. Whole-cell voltage clamp recordings were made with an Axopatch 200A amplifier (Molecular Devices) and patch pipettes with resistances of 2-3 MΩ. Pipette solution was 5 mM NaCl, 140 mM KCl, 0.5 mM CaCl2, 2 mM MgCl2, 5 mM EGTA, 10 mM HEPES, and 3 mM Na2ATP, pH 7.2, adjusted with NaOH. The external solution was 140 mM NaCl, 5 mM KCl, 2 mM CaCl2, 2 mM MgCl2, 10 mM HEPES, and 10 mM D-glucose, pH 7.4, adjusted with NaOH (Sigma). Command protocols were generated and data was digitized with a Digidata 1440A A/D interface with pCLAMP10 software. We used gravity perfusion system connected with perfusion pencil (AutoMate Scientific) to externally apply 9-HODE or capsaicin to the cells.

[1] = test system: wild type, TRPV1-deficient and G2A-deficient mice; test: Mechanical pain thresholds after intraplantar 9-HODE in oxaliplatin-treated mice; type: in vivo; conditions: for mechanical pain thresholds after intraplantar 9-HODE: day eight after oxaliplatin treatment; for mechanical paw withdrawal latencies after intraplantar 9-HODE: day 8 of oxaliplatin treatment
From the text: In all behavioral tests the experimenter was unaware of the treatment and the genotype of the mice. For all behavioral experiments we used only 6-12 weeks old C57BU6N mice purchased from commercial breeding companies (Charles River, Sulzfeld, Germany, Janvier, Le Geneset-Saint-lsle, FR). G2A and TRPV1 knockout strains were from Jackson laboratories. All experiments followed the ethics guidelines for investigations in conscious animals and the procedures were approved by the local Ethics Committee.
For the intra plantar (i.pl.) treatment with 9-HODE (1 0 (JM) (Cayman), a volume of 10 (JI was injected in the mid-plantar area of the hindpaw. For the intraperitoneal (i.p.) treatment, 100 (JI of oxaliplatin (3 mg/kg, Tocris) were injection into the peritoneum. The control group animals were treated with the corresponding volumes of 0.9% saline solution.
To determine the mechanical thresholds of mice, a Dynamic Plantar Aesthesiometer (Ugo Basile, Comerio, Italy) was used. Mice were put on an elevated grid in test cages at least 2 h before the measurement to allow accommodation. Then, baseline measurement was performed before the treatment with Oxaliplatin or 9-HODE. Therefore, a steel rod pushed against the plantar side of the hind paw with linear ascending force (0-5 g over 10 s, in 0.5 g/s intervals) until a fast withdraw of the paw was observed The time between the first contact of the steel rod and the paw withdraw was measured in seconds (paw withdraw latency) and a cut-off time of 20 s was set.

CCCCC/C=C\C=C\C(O)CCCCCCCC(=O)O (centres unmarked) [9-HODE, 9-hydroxy-10E,12Z-octadecadienoic acid]
capsaicin-induced inward current (TRPV1): significantly increased | mechanical pain thresholds after intraplantar 9-HODE ([1]; G2A-deficient mice): not in G2A-deficient mice | mechanical paw withdrawal latencies after intraplantar 9-HODE ([1]; TRPV1-deficient mice): not in TRPV1-deficient mice | mechanical paw withdrawal latencies after intraplantar 9-HODE ([1]; wild type mice, ipsilateral paw (TRPV1 study)): strong reduction of mechanical paw withdrawal latencies | mechanical pain thresholds after intraplantar 9-HODE ([1]; wildtype mice, left hind paw (G2A study, 10 μM)): strong reduction of mechanical pain thresholds
